ChEMBL document CHEMBL5131467, “Multivalent peptide dendrimers inhibit the fusion of viral-cellular membranes and the cellular NF-κB signaling pathway” (Eur J Med Chem, 2022)
Calls of active or inactive are those of the source. No cut-off for these calls is given here. Where a SMILES comes first, the peptide text is derived from it. Bridges are numbered along the chain shown (N, C = ends). Roman numbers before positions name the chains, in order. Side-chain parts run from the residue outwards. The star is where a group is joined. Fmoc = O=C(OCC1c2ccccc2-c2ccccc21)*

Assays:
Influenza A virus [1] = test: Antiviral activity against Influenza A virus (A/Puerto Rico/8/1934(H1N1)) infected in MDCK cells assessed as reduction in virus induced cytopathic effect after infection incubated for 1 hr by MTT assay; assay type: functional, organism-based
Influenza A virus [2] = test: Antiviral activity against Influenza A virus (A/Puerto Rico/8/1934(H1N1)) infected in MDCK cells assessed as reduction in virus induced cytopathic effect during infection incubated for 1 hr by MTT assay; assay type: functional, organism-based
Influenza A virus [3] = test: Antiviral activity against Influenza A virus (A/Puerto Rico/8/1934(H1N1)) infected in MDCK cells assessed as reduction in virus induced cytopathic effect pretreated with compound incubated for 1 hrs by MTT assay; assay type: functional, organism-based
Mus musculus [4] = test: Antiviral activity against Kunming mouse infected with Influenza A virus (A/Puerto Rico/8/1934(H1N1)) assessed as reduction in viral titer in lung homogenate at 5 mg/kg, ip administered twice a day for 3 days after 24 hrs of viral infection; assay type: functional, organism-based; conditions: time 3.0 day
Mus musculus [5] = test: Antiviral activity against Kunming mouse infected with Influenza A virus (A/Puerto Rico/8/1934(H1N1)) assessed as reduction in viral titer in lung homogenate at 1.25 mg/kg, ip administered twice a day for 3 days after 24 hrs of viral infection; assay type: functional, organism-based; conditions: time 3.0 day
Hemagglutinin = Hemagglutinin (Influenza A virus, UniProt B4URE7); test: Binding affinity to Influenza A Puerto Rico/8/1934/H1N1 hemagglutin assessed as dissociation constant by surface plasmon resonance assay
Hemagglutinin, sequence (B4URE7 whole entry): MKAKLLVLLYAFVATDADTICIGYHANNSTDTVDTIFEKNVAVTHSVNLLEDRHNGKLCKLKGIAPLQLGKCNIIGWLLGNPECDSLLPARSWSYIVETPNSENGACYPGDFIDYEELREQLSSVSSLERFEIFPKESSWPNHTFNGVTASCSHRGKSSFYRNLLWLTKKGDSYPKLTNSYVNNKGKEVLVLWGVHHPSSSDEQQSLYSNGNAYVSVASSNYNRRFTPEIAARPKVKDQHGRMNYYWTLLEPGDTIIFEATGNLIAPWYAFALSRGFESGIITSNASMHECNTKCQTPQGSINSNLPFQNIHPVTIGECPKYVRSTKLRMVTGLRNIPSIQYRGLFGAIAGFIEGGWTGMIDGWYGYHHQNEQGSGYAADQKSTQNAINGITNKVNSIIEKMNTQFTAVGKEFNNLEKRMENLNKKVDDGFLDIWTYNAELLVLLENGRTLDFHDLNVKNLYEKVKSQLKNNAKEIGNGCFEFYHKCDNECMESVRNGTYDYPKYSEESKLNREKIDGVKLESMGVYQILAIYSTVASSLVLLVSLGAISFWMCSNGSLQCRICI

Mus musculus [6] = test: Antiviral activity against Kunming mouse infected with Influenza A virus (A/Puerto Rico/8/1934(H1N1)) assessed as increase in body weight at 5 mg/kg, ip measured after 15 days (reference value: 178.7%); assay type: functional; conditions: time 15 day
[7] = Cytotoxicity against MDCK cells by CCK-8 assay; assay type: toxicity, cell-based, Canis lupus familiaris; conditions: dog
Influenza A virus [8] = test: Antiviral activity against Influenza A Puerto Rico/8/1934/H1N1 infected in human A549 cells assessed as inhibition of viral replication after 24 hrs by hemagglutination assay; assay type: functional, organism-based
RAW264.7 [9] = test: Anti-inflammatory activity against mouse RAW264.7 cells assessed as reduction in LPS induced TNF alpha level at 1 ug/ml by qRT-PCR analysis; assay type: functional, cell-based; conditions: dose 1.0 µg/ml
Influenza A virus [10] = test: Antiviral activity against Influenza A virus (A/Puerto Rico/8/1934(H1N1)) infected in MDCK cells assessed as reduction in HA mRNA level at 1 ug/ml measured after 24 hrs post infection by qRT-PCR analysis; assay type: functional, organism-based; conditions: dose 1.0 µg/ml
RAW264.7 [11] = test: Anti-inflammatory activity against mouse RAW264.7 cells assessed as reduction in Influenza A virus (A/Puerto Rico/8/1934(H1N1)) induced TNF alpha level at 1 ug/ml by ELISA method; assay type: functional; conditions: dose 1 µg/ml
Erythrocyte = test: Hemolytic activity in chicken erythrocytes at up to 50 uM pre-treated with virus for 30 mins followed by addition of cell measured after 30 mins by microplate reader assay; assay type: toxicity, cell-based, Gallus gallus; conditions: 0.5 h
Influenza A virus [12] = test: Antiviral activity against Influenza A virus (A/Puerto Rico/8/1934(H1N1)) infected in MDCK cells assessed as reduction in viral nucleoprotein expression level at 2 ug/ml pretreated with compound measured after 24 hrs post infection by indirect immunofluorescence assay; assay type: functional, organism-based; conditions: dose 2.0 µg/ml
Mus musculus [13] = test: Antiviral activity against Kunming mouse infected with Influenza A virus (A/Puerto Rico/8/1934(H1N1)) assessed as survival rate at 1.25 mg/kg, ip administered twice a day with a time interval of 12 hrs for 4 days relative to control; assay type: functional; conditions: 96 h, time 4 day
RAW264.7 [14] = test: Anti-inflammatory activity against mouse RAW264.7 cells assessed as reduction in influenza A virus induced IL-1 beta level at 1 ug/ml by qRT- PCR; assay type: functional, cell-based; conditions: dose 1.0 µg/ml
Mus musculus [15] = test: Antiviral activity against Kunming mouse infected with Influenza A virus (A/Puerto Rico/8/1934(H1N1)) assessed as recovery in body weight at 5 mg/kg, ip administered twice a day with a time interval of 12 hrs for 4 days measured from day 8 upto 15 days (Rvb =18.02 g); assay type: functional; conditions: time 15 day
RAW264.7 [16] = test: Anti-inflammatory activity against LPS induced mouse RAW264.7 cells assessed as suppression of NF kappa B expression level at 1.5 ug/ml by luciferase reporter assay; assay type: functional, cell-based; conditions: dose 1.5 µg/ml
Influenza A virus [17] = test: Induction of morphological changes in Influenza A Puerto Rico/8/1934/H1N1 assessed as increase in broken edge of the virus incubated for 30 mins by transmission electron microscopic analysis; assay type: functional, organism-based; conditions: dose 10-50 µg/ml, DDE = dose-dependent effect
[18] = Half life in Kunming mouse at 10 mg/kg, ip by HPLC analysis; assay type: ADME, organism-based; conditions: in vivo
RAW264.7 [19] = test: Anti-inflammatory activity against mouse RAW264.7 cells assessed as reduction in LPS induced TNF alpha level at 1 ug/ml by ELISA method; assay type: functional; conditions: dose 1 µg/ml
[20] = Tmax in Kunming mouse at 10 mg/kg, ip by HPLC analysis; assay type: ADME, organism-based; conditions: in vivo
RAW264.7 [21] = test: Anti-inflammatory activity against Influenza A virus (A/Puerto Rico/8/1934(H1N1)) s induced mouse RAW264.7 cells assessed as suppression of NF kappa B expression level 1.5 ug/ml by luciferase reporter assay; assay type: functional, cell-based; conditions: dose 1.5 µg/ml
Influenza A virus [22] = test: Antiviral activity against Influenza A virus A/FM/1/47 infected in MDCK cells incubated for 1 hr by MTT assay; assay type: functional, organism-based; conditions: A/FM/1/47, MDCK
Influenza A virus [23] = test: Antiviral activity against Influenza A virus (A/Puerto Rico/8/1934(H1N1)) infected in MDCK cells assessed as reduction in viral nucleoprotein expression level at 2 ug/ml pre-treated with virus measured after 24 hrs post infection by indirect immunofluorescence assay; assay type: functional, organism-based; conditions: dose 2.0 µg/ml
RAW264.7 [24] = test: Anti-inflammatory activity against mouse RAW264.7 cells assessed as reduction in LPS induced IL-1 beta level at 1 ug/ml by qRT-PCR analysis; assay type: functional, cell-based; conditions: dose 1.0 µg/ml
[25] = Cytotoxicity against MDCK cells incubated for 1 hr by MTT assay; assay type: toxicity, cell-based, Canis lupus familiaris; conditions: dog
RAW264.7 [26] = test: Anti-inflammatory activity against mouse RAW264.7 cells assessed as reduction in influenza A virus induced TNF alpha level at 1 ug/ml by qRT- PCR; assay type: functional, cell-based; conditions: dose 1.0 µg/ml
Influenza A virus [27] = test: Antiviral activity against Influenza A virus (A/Puerto Rico/8/1934(H1N1)) infected in MDCK cells assessed as reduction in viral nucleoprotein expression level at 2 ug/ml during infection measured after 24 hrs post infection by indirect immunofluorescence assay; assay type: functional, organism-based; conditions: dose 2.0 µg/ml
Influenza A virus [28] = test: Antiviral activity against influenza A/Thailand/Kan353/2004 infected in MDCK cells assessed as inhibition of syncytium formation at 2.5 ug/ml incubated for 3 hrs by giemsa staining based assay relative to control; assay type: functional; parameters: scale not given: the % may be the effect or the level left; conditions: dose 2.5 µg/ml
RAW264.7 [29] = test: Cytotoxicity against mouse RAW264.7 cells assessed as cell viability at lesser than 100 ug/ml by CCK-8 assay; assay type: toxicity, cell-based; conditions: dose < 100 µg/ml
Influenza A virus [30] = test: Antiviral activity against Influenza A virus (A/Puerto Rico/8/1934(H1N1)) infected in MDCK cells after treatment incubated for 1 hr by MTT assay; assay type: functional, organism-based
RAW264.7 [31] = test: Anti-inflammatory activity against mouse RAW264.7 cells assessed as reduction in influenza A virus induced IL-6 level at 1 ug/ml by qRT- PCR; assay type: functional, cell-based; conditions: dose 1.0 µg/ml
[32] = Cmax in Kunming mouse at 10 mg/kg, ip by HPLC analysis; assay type: ADME, organism-based; parameters: dose 10 mg/kg, route ip; conditions: in vivo

## NCCCC[C@H](NC(=O)OCC1c2ccccc2-c2ccccc21)C(=O)N[C@@H](CCCCN)C(=O)N[C@@H](Cc1c[nH]c2ccccc12)C(=O)N[C@@H](CCCCN)C(=O)NCCCC[C@H](NC(=O)[C@H](CCCCN)NC(=O)[C@H](Cc1c[nH]c2ccccc12)NC(=O)[C@H](CCCCN)NC(=O)[C@H](CCCCN)NC(=O)OCC1c2ccccc2-c2ccccc21)C(=O)NCCCC[C@H](NC(=O)[C@H](CCCCNC(=O)[C@H](CCCCN)NC(=O)[C@H](Cc1c[nH]c2ccccc12)NC(=O)[C@H](CCCCN)NC(=O)[C@H](CCCCN)NC(=O)OCC1c2ccccc2-c2ccccc21)NC(=O)[C@H](CCCCN)NC(=O)[C@H](Cc1c[nH]c2ccccc12)NC(=O)[C@H](CCCCN)NC(=O)[C@H](CCCCN)NC(=O)OCC1c2ccccc2-c2ccccc21)C(=O)NCC(=O)O (I: Fmoc-KKWKK([Lys-Trp-Lys-Lys-Fmoc])KG-OH / II: Fmoc-KKWKK([Lys-Trp-Lys-Lys-Fmoc]); amide I:6-II:C)
Influenza A virus [1]
  IC50: 11600 nM
Influenza A virus [2]
  IC50: 310 nM
Influenza A virus [3]
  IC50: 240 nM
Mus musculus [4]
  Activity: Active
Mus musculus [5]
  Activity: Active
Hemagglutinin
  Kd: 0.00665 nM
Mus musculus [6]
  Activity: 129.4%
[7]
  CC50: 37800 nM
Influenza A virus [8]
  Activity: Active
RAW264.7 [9]
  Activity: Active
Influenza A virus [10]
  Activity: Active
RAW264.7 [11]
  Activity: 203 pg/mL
Erythrocyte
  Activity: Toxic
Influenza A virus [12]
  Activity: Active
Mus musculus [13]
  survival at 1.25 mg/kg: 20%
RAW264.7 [14]
  Activity: Active
Mus musculus [15]
  Activity: 26.99 g
RAW264.7 [16]
  Activity: Active
Influenza A virus [17]
  Activity: Dde
[18]
  half-life: 2.88 h
RAW264.7 [19]
  Activity: 250.5 pg/mL
[20]
  Tmax: 1.03 h
RAW264.7 [21]
  Activity: Active
Influenza A virus [22]
  IC50: 170 nM
Influenza A virus [23]
  Activity: Active
RAW264.7 [24]
  Activity: Active
[25]
  CC50 at 1 h: 41900 nM
RAW264.7 [26]
  Activity: Active
Influenza A virus [27]
  Activity: Active
Influenza A virus [28]
  Activity: 63%
RAW264.7 [29]
  Activity: Non-Toxic
Influenza A virus [30]
  IC50: 320 nM
RAW264.7 [31]
  Activity: Active
[32]
  Cmax: 5020 ng/mL
